The values that follow come from patent US20160051514A1, “METHODS FOR TREATMENT OF CARDIOMYOPATHY” (THE BRIGHAM AND WOMEN'S HOSPITAL, INC., priority 2013, published 2016).

In assay [1] the test system is zebrafish ventricular myocytes expressing 2057del2 plakoglobin. As to the kind of experiment: Action potentials by current clamp in isolated zebrafish ventricular myocytes. It counts as cell-based, zebrafish (Danio rerio).
From the text: (§1) Zebrafish ventricular myocyte isolation and culture: Zebrafish (Danio rerio) were bred and maintained at 28′C with 14 hr exposure to light and 10 hr to dark (day/night cycle) according to IACUC-approved protocols. Hearts were extracted from anesthetized fish at 21-56 days post-fertilization(dpf) using micro-dissecting tweezers (Roboz Surgical Instruments), washed vigorously in culture medium (M199, primocin, HEPES, L-glutamine, 10% fetal bovine serum) and placed in fresh medium. Ventricles were separated at the atrio-ventricular junction, pooled in a tube containing enzyme solution (HBSS without calcium/magnesium, Trypsin, PCN/Streptomycin, HEPES) at 37° C. and agitated in a thermomixer at 1000-1200 RPM. Dissociated cells were collected every 10 min from supernatants and transferred to tubes containing culture medium and 10% fetal bovine srum to halt trypsinization. Cells were then pelleted by centrifugation, resuspended in fresh culture medium, and seeded on sterile cover slips coated with laminin (20 μg/ml)^11 at 28° C. in a 5% CO2 incubator. After 36 hr, culture medium was changed and unattached cells were removed.
After opening the gigaseal, the microelectrode amplifier (HEKA, EP-10, Lambrecht, Germany) was set to zero holding current and cells were stimulated at a frequency of 0.5 to 1 Hz. Recordings were corrected for a junction potential of 12 mV.^12,13
as §1, with “culture:” for “culture: Zebrafish (Danio rerio) were bred and maintained at 28′C with 14 hr exposure to light and 10 hr to dark (day/night cycle) according to IACUC-approved protocols.”, “3-4 or 5-7 weeks post-fertilization” for “21-56 days post-fertilization(dpf)”, “(calcium/magnesium free-HBSS containing trypsin, penicillin/streptomycin,” for “(HBSS without calcium/magnesium, Trypsin, PCN/Streptomycin,”, “serum” for “srum”, “μg/ml)” for “μg/ml)^11”, “28.5°” for “28°”
Cellular electrophysiology methods: Current clamp experiments in isolated neonatal rat and zebrafish ventricular myocytes were carried out using standard protocols (31). […] After opening the gigaseal, the microelectrode amplifier (HEKA, EP-10, Lambrecht, Germany) was set to zero holding current and cells were stimulated at a frequency of 0.5 to 1 Hz. Recordings were corrected for a junction potential of 12 mV (32,33). The chemical composition of the external and pipette solutions is described in supplemental material.

Assay [2] concerns nppb::luciferase reporter. As to the kind of experiment: nppb::luciferase reporter chemical screen in 2057del2 plakoglobin zebrafish embryos. It counts as in vivo. Conditions: 72 hpf, 3 μM in the well between 48 and 72 hpf. As to the method: Chemical screening: Chemicals were dissolved in DMSO (Sigma-Aldrich, St. Louis, Mo., USA). Embryos (double homozygous for the 2057del2 plakoglobin mutation and the nppb::luciferase reporter) were arrayed in 96 well plates in HEPES-buffered E3 medium and small molecules were pin-transferred (200 n1) from arrayed chemical libraries. Positive (untreated wild type nppb::luciferase embryos) and negative controls (untreated 2057del2 plakoglobin/nppb::luciferase fish) were included in each plate. […] Each set of compounds was tested in duplicate to improve the discriminatory power of the assay. After being evaluated for viability, an equal volume of long half-life luciferase reagent (Promega Steady Glo™) was added to each well. The plate was then incubated in the dark for 60 min and activities were measured with a Victor 3™ luminometer (Perkin-Elmer). Each measurement was performed in duplicate and results were normalized to the number of fish in the well. Follow-up chemical treatments were performed in HEPES-buffered E3 medium in petri dishes.
In general terms: Reporter assays use an easily measured gene product as a stand-in for the process of interest.

For assay [3], the system named is 2057del2 plakoglobin (Plk) transgenic mice. The assay is described as follows: Mouse model of AC: transgenic cardiac myocyte-specific 2057del2 plakoglobin (Plk). The format is in vivo. Conditions: daily injections for 6 weeks. As to the method:
2 different mouse models of AC were studied: a transgenic line with cardiac myocyte-specific expression of 2057del2 plakoglobin (Plk) and a mutant desmoglein-2 (Dsg2) knock-in model. ECG telemetry and echocardiographic analyses were performed in mutant and wildtype mice treated with daily injections of SB216763 or vehicle for 6 (2057del2 Plk) or 13 (Dsg2) weeks. Hearts excised at selected time points were analyzed for histology, apoptosis and distribution of key intercalated disk proteins.

The mark [4] stands for this setting: 3-4 weeks post-fertilization, 2057del2 plakoglobin + SB2.
Where [5] appears, read: 3-4 weeks post-fertilization, Control + SB2.
Setting [6] is: 5-7 weeks post-fertilization, 2057del2 plakoglobin + SB2, embryos treated at 1 dpf for 6 days (3.0 μM).
Setting [7] is: 5-7 weeks post-fertilization, Control + SB2, embryos treated at 1 dpf for 6 days (3.0 μM).
Where [8] appears, read: embryos treated at 1 dpf for 6 days, myocytes studied at 5-7 weeks.

Entries after “also recorded” stand apart in the source; their conditions may differ.

On to `Cn1cc(C2=C(c3ccc(Cl)cc3Cl)C(=O)NC2=O)c2ccccc21` [SB216763], for which, in assay [1] (setting [4]), the Action potential duration is given as 175 ms, the Maximal upstroke velocity is 22 V/s and the Resting membrane potential is −75 mV. Further, in assay [1] (setting [5]), the Action potential duration turned out to be 173 ms, the Maximal upstroke velocity is reported as 35 V/s and the Resting membrane potential is on record as −79 mV. For the same compound, in assay [1] (setting [6]), the Action potential duration came out at 154 ms, the Maximal upstroke velocity was found to be 66 V/s and the Resting membrane potential is −78 mV. In addition, in assay [1] (setting [7]), the Action potential duration is recorded as 195 ms, the Maximal upstroke velocity is on record as 53 V/s and the Resting membrane potential is listed as −77 mV. For the same compound, in assay [1] (setting [8]), the “Effect on APD80% in fish expressing mutant plakoglobin” value is reported as “shortened APD8O% beyond control levels; also recorded: shortened APD80% beyond control levels”; the “Effect on RMP and dV/dtmax in fish expressing mutant plakoglobin” value was “normalized RMP and dV/dtmax”; the “Effect on action potentials in myocytes from control fish” value is “had no effect on action potentials; also recorded: did not affect action potentials”. Also, the “Effect on action potential remodeling, short-term exposure of isolated cells” value in assay [1] (isolated myocytes from transgenic fish treated in culture for 36 hr) was “normalized action potential remodeling”. Also, the “nppb expression / nppb::luciferase activity” value in assay [2] is “normalizer of the nppb response; also recorded: reduced nppb expression”. The “nppb expression / nppb::luciferase activity” value in assay [2] (listed as SB2) is reported as “reduced nppb expression”. Further, the “nppb expression / nppb::luciferase activity” value in assay [2] (listed as SB216736) is “normalized nppb::luciferase activity”. Further, in assay [3], the “Myocyte necrosis, fibrosis and inflammation” value is reported as “nearly absent”; the “Redistribution of junctional signals for Plk, Cx43 and SAP97, and myocardial apoptosis” value was “normalized”. Further, the PVCs in assay [3] (ECG telemetry) was found to be 2.8 ± 0.6 min⁻¹.
